Read-outs that look alike come from different tables or passages of the source.
Columns and labels:
[1] = target: BTK (Rattus norvegicus, UniProt Q5S255); assay: BTK occupancy from in vivo samples by ELISA; conditions: po, rats dosed orally 30 mg/kg
Experimental: (§1) All samples were prepared with equal concentrations of Biorad lysis buffer (Hercules, Calif., USA), 0.5% bovine serum albumin in PBS with 0.05% Tween-20 to give a final concentration of 1 μM I-215. Samples were incubated in a mixing plate for 1 hr at room temperature while shaking to allow probe compound I-215 to bind to free BTK. After incubation with I-215, samples were added to a washed, streptavidin-coated ELISA plate (Pierce, Rockford, Ill., USA) and incubated for 1 hr at room temperature while shaking. The plate was then washed with PBS containing 0.05% Tween-20 using an automatic plate washer. Anti-BTK antibody was prepared at 1:1000 dilution in 0.5% BSA in PBS (0.05% Tween-20) and added to the ELISA plate. The plate was incubated for 1 hr at room temperature while shaking. The plate was washed as described above and the secondary HRP antibody was prepared at 1:5000 dilution in 0.5% BSA in PBS (0.05% Tween-20). The plate was incubated and washed as described above. TMB was added to the plate, and OD650 was monitored until reaching 1 OD unit. The reaction was then stopped with addition of H2SO4. The plate was analyzed using Gen 5 software, and a 4 Parameter Logistic curve was employed to quantitate samples. Recombinant BTK (Invitrogen, Carlsbad, Calif., USA) was used for the standard curve.
Rats were dosed orally with 30 mg/kg of compound and spleens were harvested either 2 or 24 hours after compound treatment. Rat spleens were disrupted between two microscope slides coated with frosted glass to recover single cell suspensions. Red blood cells were lysed by incubating with RBC lysis buffer (Boston BioProducts) for 2 minutes at room temperature, the cells were then resuspended in RPMI complete media and pelleted by centrifugation. Rat B cells were isolated by positive selection with B220+ antibody-magnetic bead conjugates, purified by MACS column and lysed in Bio-Rad lysis buffer at a concentration of 10 million cells/100 μl. Lysates were analyzed employing the biotinylated probe compound I-215 in an ELISA protocol as described in detail in Example 278.

[2] = target: T1, BTK (Homo sapiens (Human), UniProt Q06187); assay: BTK occupancy from in vitro samples by ELISA (Ramos cells); format: cell-based
T1 sequence (Q06187 whole entry): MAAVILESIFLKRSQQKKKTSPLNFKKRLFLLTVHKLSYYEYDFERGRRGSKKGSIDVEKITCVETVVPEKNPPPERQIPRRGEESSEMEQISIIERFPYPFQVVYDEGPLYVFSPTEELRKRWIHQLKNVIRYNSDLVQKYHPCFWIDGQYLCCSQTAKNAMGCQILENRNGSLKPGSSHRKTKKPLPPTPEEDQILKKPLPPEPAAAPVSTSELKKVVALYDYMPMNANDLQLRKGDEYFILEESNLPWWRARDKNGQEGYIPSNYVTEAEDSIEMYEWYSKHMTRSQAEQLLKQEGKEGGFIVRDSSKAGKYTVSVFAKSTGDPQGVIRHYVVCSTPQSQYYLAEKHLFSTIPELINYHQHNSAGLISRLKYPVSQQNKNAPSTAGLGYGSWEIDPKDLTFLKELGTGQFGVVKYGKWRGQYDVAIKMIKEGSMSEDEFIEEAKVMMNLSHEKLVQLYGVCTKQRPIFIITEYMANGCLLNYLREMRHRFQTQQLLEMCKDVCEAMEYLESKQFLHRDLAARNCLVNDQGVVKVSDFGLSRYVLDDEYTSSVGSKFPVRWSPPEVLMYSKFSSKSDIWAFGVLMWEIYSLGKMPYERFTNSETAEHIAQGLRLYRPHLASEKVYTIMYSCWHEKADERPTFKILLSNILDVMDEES
Experimental: In order to determine the amount of free BTK in cell or tissue lysates, an ELISA protocol was employed that utilizes a biotinylated probe compound that binds only to free, unoccupied BTK. The conjugated biotin is captured on a streptavidin-coated ELISA plate and detected with a mouse anti-BTK antibody (Becton Dickinson, Franklin Lakes, N.J., USA) and a secondary goat anti-mouse HRP antibody (Zymed, South San Francisco, Calif., USA).
as §1
A concentration designated as “A” is greater than 1 nM; a concentration designated as “B” is greater than 10 nM; and a concentration designated as “C” is greater than 50 nM.

[3] = system: Human naïve B cells; assay: Human primary B cell proliferation assay; format: cell-based; conditions: 5 μg/ml α-IgM 72 hours, 3H-thymidine incorporation
Experimental: Human naïve B cells were purified from 100 mL whole blood using a MACS purification kit designed to isolate CD19+, IgD+ cells by negative selection. Purified naïve B cells were resuspended in RPMI complete and stimulated with 5 μg/ml α-IgM for 72 hours. ^3H-Thymidine was included in the culture media for the final 16 h, cells were harvested and ^3H incorporation measured. Inhibition of B cell proliferation correlates with inhibition of BTK substrate phosphorylation after α-IgM stimulation.

[4] = target: T2, JAK3 (Homo sapiens (Human), UniProt P52333); assay: Omnia assay for potency assessment against the active form of JAK3; format: biochemical; conditions: read-out: JAK3 Inhibition
T2 sequence (P52333 whole entry): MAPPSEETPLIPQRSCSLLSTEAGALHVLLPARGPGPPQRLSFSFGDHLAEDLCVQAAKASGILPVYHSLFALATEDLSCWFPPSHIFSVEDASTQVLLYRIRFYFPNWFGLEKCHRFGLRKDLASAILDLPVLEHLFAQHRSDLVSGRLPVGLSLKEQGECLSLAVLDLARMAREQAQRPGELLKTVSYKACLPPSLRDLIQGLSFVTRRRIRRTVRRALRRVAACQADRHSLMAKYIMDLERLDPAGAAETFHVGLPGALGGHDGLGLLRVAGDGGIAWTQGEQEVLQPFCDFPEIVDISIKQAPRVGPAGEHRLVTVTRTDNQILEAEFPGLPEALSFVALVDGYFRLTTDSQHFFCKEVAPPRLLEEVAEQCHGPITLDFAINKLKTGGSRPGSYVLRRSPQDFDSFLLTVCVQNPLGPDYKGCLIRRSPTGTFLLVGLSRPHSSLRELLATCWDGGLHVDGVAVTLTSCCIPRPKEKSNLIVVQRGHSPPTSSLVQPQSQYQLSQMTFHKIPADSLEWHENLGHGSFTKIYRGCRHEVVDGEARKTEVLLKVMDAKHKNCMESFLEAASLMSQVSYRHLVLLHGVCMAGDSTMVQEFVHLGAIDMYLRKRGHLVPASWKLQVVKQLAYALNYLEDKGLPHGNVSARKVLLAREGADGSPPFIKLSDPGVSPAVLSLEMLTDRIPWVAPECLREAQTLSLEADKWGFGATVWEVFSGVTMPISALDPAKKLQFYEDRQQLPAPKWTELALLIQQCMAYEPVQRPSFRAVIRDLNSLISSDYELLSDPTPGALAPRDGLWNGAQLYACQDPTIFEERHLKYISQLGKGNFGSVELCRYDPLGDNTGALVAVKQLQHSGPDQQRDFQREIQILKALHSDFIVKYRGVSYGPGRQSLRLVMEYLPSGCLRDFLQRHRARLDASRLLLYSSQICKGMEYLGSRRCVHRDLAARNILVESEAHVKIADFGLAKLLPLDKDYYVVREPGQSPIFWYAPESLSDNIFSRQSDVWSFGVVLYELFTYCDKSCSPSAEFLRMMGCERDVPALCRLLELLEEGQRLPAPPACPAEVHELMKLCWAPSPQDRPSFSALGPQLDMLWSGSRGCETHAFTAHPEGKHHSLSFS

[5] = system: B cell lymphoma cell lines; assay: B cell lymphoma proliferation assay; format: cell-based
[6] = target: T1, BTK; assay: Mass spectrometry for BTK (covalent modification of intact protein); format: binding; conditions: 1 hr, 10x fold excess of compound
Experimental: Intact BTK was incubated for 1 hr at a 10× fold excess of I-7 to protein. Aliquots (2 μl) of the samples were diluted with 10 μl of 0.1% TFA prior to micro C4 ZipTipping directly onto the MALDI target using Sinapinic acid as the desorption matrix (10 mg/ml in 0.1% TFA:Acetonitrile 20:80).

[7] = target: T1, BTK; assay: Human primary B cell covalent probe occupancy in vitro; format: cell-based; conditions: human primary B cells, 1 h at 37° C.
Experimental: as §1, with “The plate was incubated and washed as described above.” left out, “The reaction was then stopped with addition of H2SO4.” left out, “Recombinant BTK (Invitrogen, Carlsbad, Calif., USA) was used for the standard curve.” left out
Human primary B cells were isolated as described in Example 256, then resuspended in RPMI media (10% serum). The compound to be analyzed was added at a 1:1000 dilution to media. […] The supernatant was analyzed as described in Example 283 using I-215.

[8] = target: Erbb4 kinase domain (Homo sapiens (Human), UniProt Q15303); assay: Mass spectrometry for ERBB4; format: binding; conditions: 60 minutes at 10-fold excess of compound
Chain of Erbb4 kinase domain (Q15303 718-985): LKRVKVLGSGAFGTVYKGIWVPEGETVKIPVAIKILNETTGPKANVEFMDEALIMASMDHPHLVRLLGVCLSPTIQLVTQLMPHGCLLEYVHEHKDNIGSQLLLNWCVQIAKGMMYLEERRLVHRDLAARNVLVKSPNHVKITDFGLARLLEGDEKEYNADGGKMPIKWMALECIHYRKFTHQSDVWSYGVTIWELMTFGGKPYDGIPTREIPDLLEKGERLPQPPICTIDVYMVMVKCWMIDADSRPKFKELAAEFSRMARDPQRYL
Experimental: Erbb4 kinase domain (Upstate) was incubated with compound for 60 minutes at 10-fold excess of compound I-4 and I-11 to protein. 1 μl aliquots of the samples (total volume of 4.24 ul) were diluted with 10 μl of 0.1% TFA prior to micro C4 ZipTipping directly onto the MALDI target using Sinapinic acid as the desorption matrix (10 mg/ml in 0.1% TFA:Acetonitrile 50:50). For intact protein mass measurement the instrument was set in Linear mode using a pulsed extraction setting of 16,952 for the myoglobin standard used to calibrate the instrument (Shimadzu Axima TOF^2).
Intact ErbB4 protein occurs at MH+ of 35850 with corresponding sinapinic (matrix) adducts occurring about 200 Da higher. A stoichiometric incorporation of the test compound (I-4 and I-11) (Mw of 410 Da) produced a new mass peak which is approximately 410 Da higher (MH+ of 36260).

[9] = target: T2, JAK3; assay: Mass spectrometry for Janus-3 kinase (JAK3); format: binding; conditions: 3 hrs at 10x excess, tryptic digest
Experimental: JAK3 kinase (33 pmols; Invitrogen) was incubated with (I-7) (327 pmols) for 3 hrs at 10× excess prior to tryptic digestion. Iodoacetamide was used as the alkylating agent after compound incubation. For tryptic digests a 5 ul aliquot (5.5 pmols) was diluted with 15 ul of 0.1% TFA prior to micro C18 Zip Tipping directly onto the MALDI target using alpha cyano-4-hydroxy cinnamic acid as the matrix (5 mg/ml in 0.1% TFA:Acetonitrile 50:50).
As depicted in FIG. 11, the expected peptide ([…]) to be modified was immediately evident as the largest peak at MH+ of 1725.88. This is the mass to be expected when compound I-7, with an adduct mass of 345.16, is added to the peptide mass of 1380.70. […] There was also evidence for a number of other modified peptides, however, their signals were low.
To further verify the presence of the modified peptides with compound I-7, the peptides at MH+ of 1725.88 and 1118.55 were subjected to PSD (MS/MS) analysis. A correlational analysis with the homo sapien database identified the correct peptides as being modified by I-7.
For tryptic digests the instrument was set in Reflectron mode with a pulsed extraction setting of 2200. Calibration was done using the Laser Biolabs Pep Mix standard ([…], 1296.69, 1672.92, 2093.09, 2465.20). […]

[10] = target: BTK (Canis lupus familiaris, UniProt A0A8I3P3Z9); assay: Dog primary B cell covalent probe occupancy in vitro; format: cell-based; conditions: canine PBMCs, one hour at 37° C.
Chain of BTK (Canis lupus familiaris, UniProt A0A8I3P3Z9) (A0A8I3P3Z9 1-664): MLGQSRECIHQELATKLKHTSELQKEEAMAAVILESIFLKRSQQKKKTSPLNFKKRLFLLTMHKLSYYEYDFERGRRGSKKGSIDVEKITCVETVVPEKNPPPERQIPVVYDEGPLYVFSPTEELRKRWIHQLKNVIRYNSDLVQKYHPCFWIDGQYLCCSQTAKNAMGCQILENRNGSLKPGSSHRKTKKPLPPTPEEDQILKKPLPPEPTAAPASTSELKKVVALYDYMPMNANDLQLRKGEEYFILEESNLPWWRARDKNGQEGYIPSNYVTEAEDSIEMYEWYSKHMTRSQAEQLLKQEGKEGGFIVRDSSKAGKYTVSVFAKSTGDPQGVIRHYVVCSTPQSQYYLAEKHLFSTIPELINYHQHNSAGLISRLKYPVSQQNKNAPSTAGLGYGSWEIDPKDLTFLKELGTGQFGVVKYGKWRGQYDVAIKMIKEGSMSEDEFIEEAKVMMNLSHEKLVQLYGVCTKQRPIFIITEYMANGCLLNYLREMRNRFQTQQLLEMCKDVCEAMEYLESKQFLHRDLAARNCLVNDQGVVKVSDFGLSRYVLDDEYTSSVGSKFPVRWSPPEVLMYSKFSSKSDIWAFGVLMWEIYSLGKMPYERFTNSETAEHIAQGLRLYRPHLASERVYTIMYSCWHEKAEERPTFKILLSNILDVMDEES
Experimental: as §1, with “The reaction was then stopped with addition of H2SO4.” left out, “Recombinant BTK (Invitrogen, Carlsbad, Calif., USA) was used for the standard curve.” left out
Canine whole blood (30 mL) was diluted to 50 mL total with 1×PBS and layered on top of Histopaque-1077 (Sigma Aldrich). […] The supernatant was analyzed as described in Example 283 using I-215. […]

[11] = spleen B cells harvested 2 hours after treatment, read-out: % BTK Occupancy 2 h
[12] = spleen B cells harvested 24 hours after treatment, read-out: % BTK Occupancy 24 h
[13] = Homo sapiens, DOHH-2, DOHH2 B cell lymphoma cell line, read-out: EC50 (μM) DOHH2
[14] = Homo sapiens, WSUDLCL2, WSU-DLCL2 B cell lymphoma cell line, read-out: EC50 (μM) WSU-DLCL2

Chain of BTK (Rattus norvegicus, UniProt Q5S255) (Q5S255 1-660): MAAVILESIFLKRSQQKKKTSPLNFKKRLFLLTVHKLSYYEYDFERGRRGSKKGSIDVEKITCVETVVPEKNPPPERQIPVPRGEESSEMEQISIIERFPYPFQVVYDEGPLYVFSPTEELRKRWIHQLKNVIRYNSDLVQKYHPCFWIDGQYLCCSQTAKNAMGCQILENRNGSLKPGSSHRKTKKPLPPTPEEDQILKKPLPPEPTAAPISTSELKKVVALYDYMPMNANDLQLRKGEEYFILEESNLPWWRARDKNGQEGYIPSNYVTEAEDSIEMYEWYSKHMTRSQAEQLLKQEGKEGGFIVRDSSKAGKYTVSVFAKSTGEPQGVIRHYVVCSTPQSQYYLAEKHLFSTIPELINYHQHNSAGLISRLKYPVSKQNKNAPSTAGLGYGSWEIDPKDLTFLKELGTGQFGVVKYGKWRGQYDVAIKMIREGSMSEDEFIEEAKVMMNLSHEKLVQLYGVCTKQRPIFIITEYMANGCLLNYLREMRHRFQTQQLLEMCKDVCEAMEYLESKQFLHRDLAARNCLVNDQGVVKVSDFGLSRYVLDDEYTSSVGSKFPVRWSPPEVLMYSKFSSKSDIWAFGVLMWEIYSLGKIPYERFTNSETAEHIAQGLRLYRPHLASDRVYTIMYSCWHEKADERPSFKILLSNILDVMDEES

SMILES | receptor occupancy at 30 mg/kg [1, 11] | receptor occupancy at 30 mg/kg [1, 12] | >50% occupancy (concentration at which >50% of BTK is occupied) [2] | >90% occupancy (concentration at which >90% of BTK is occupied) [2] | EC50 [3] | IC50 [4] | EC50 ([5]; DHL4 B cell lymphoma cell line, read-out: EC50 (μM) DHL4) | EC50 [5, 13] | EC50 [5, 14] | covalent modification of BTK by mass spectrometry [6] | concentration at which at least 50% of BTK is occupied [7] | covalent modification of ErbB4 by mass spectrometry [8] | covalent modification of JAK3 peptide LVMEYLPSGCLR (Cys909) by mass spectrometry [9] | concentration at which at least 50% of BTK is occupied [10]
C=CC(=O)Nc1cccc(Nc2nc(Nc3ccc(OCCOC)cc3)ncc2F)c1 [Compound I-182, N-(3-(5-fluoro-2-(4-(2-methoxyethoxy)phenylamino)pyrimidin-4-ylamino)phenyl)acrylamide] | 99% | 79% | A (greater than 1 nM) | C (greater than 50 nM) | 0.001 to 0.01 µM | < 0.01 µM | 1 to 10 µM | 1 to 10 µM | 1 to 10 µM | completely modify | greater than 10 nM |  |  | 
Cc1cnc(Nc2cccc(S(N)(=O)=O)c2)nc1Nc1ccc2c(c1)CCN(C(=O)CCl)C2 [Compound I-11, 3-(4-(2-(2-chloroacetyl)-1,2,3,4-tetrahydroisoquinolin-6-ylamino)-5-methylpyrimidin-2-ylamino)benzenesulfonamide] |  |  |  |  |  | < 0.01 µM |  |  |  |  |  | covalent modification | measurable modification | 
C=CC(=O)Nc1cccc(Nc2nc(Nc3ccc(OCCOC)c(F)c3)ncc2F)c1 [Compound I-96, N-(3-(2-(3-fluoro-4-(2-methoxyethoxy)phenylamino)-5-fluoropyrimidin-4-ylamino)phenyl)acrylamide] | 87% | 60% | A (greater than 1 nM) | B (greater than 10 nM) | 0.001 to 0.01 µM | < 0.01 µM |  | 0.1 to 1 µM | 1 to 10 µM | completely modify | greater than 10 nM |  |  | greater than 10 nM

From US10596172B2 (Celgene CAR LLC, priority 2008, dated 2020)
